Here are results for 5 molecules from patent publication US6887669B1, “Reagents for assays for ligands” (Dade Behring Marburg GmbH, priority 1996, dated 2005).

Data set [1] is described as follows: Discoloration of Reagent A on exposure to light. The settings on record: agent formulated in Reagent A. Type of data set: physicochemical.
The nature of data set [2]: Background absorbance at 340 nm of Reagent A containing releasing agent. Type of data set: physicochemical. Particulars: for C A 340 nm (background absorbance): 3 μL negative NHP + 72 μL water + 155 μL Reagent A, 0.6 cm path; for C A 340 nm (background absorbance) / D ΔA = agent - control ΔA 340 nm: ANS 0.25 mM, anisic acids 12.5 mM in Rgt A. The procedure:
In both runs, the background absorbance at 340 nm for each Reagent A was measured in duplicate on a 230-μL combination of 3 μL negative NHP, 72 μL of deionized water, and 155 μL Reagent A. The cell path length was 0.6 cm. […] These changes are noted as follows. Reagent B and water were added in cycle 4. The analysis was finished at the end of cycle 15. Rates were determined using the 5 absorbance readings of cycles 11 through 15.

In data set [3] the test system is MPA bound to plasma proteins in normal human plasma (NHP). Briefly: MPA enzyme immunoassay rates with releasing agents in Reagent A (NHP versus buffer), Example 2. Particulars: for I (H-G) Buff Rate Span: 0 to 10 μg/mL MPA in buffer; for J (H-F) Buff-NHP Rate Diff.: 10 μg/mL MPA, closer to zero = better releasing effect; for G Buff with 0 μg/mL MPA Rate / H Buff with 10 μg/mL MPA Rate: 50 mM MES buffer pH 7.1; for G Buff with 0 μg/mL MPA Rate / H Buff with 10 μg/mL MPA Rate / E NHP with 0 μg/mL MPA Rate / F NHP with 10 μg/mL MPA Rate: ANS 0.25 mM, anisic acids 12.5 mM in Rgt A. The procedure:
Rates were determined on a Cobas Mira Plus® instrument (Roche Diagnostics Systems, Inc., Branchburg, N.J.). The temperature was kept at 37° C. for the entire assay. Timings were carried out in cycles with each cycle being 25 seconds. In cycle 1, the first cycle, 75 μL of water and 3 μL of a sample were mixed with 155 μL of A diluent in a 0.6 cm path length cuvette. This mixture was incubated until the addition of Reagent B in cycle 7. […] In cycle 7, seventy-five μL of Reagent B followed by 20 μL of water was then added to the cuvette, mixed, and incubated until the end of cycle 25 at which time the assay was finished. During the assay, absorbance readings at 340 nm were made at the end of every cycle. A best linear fit was then made using only the 12 consecutive absorbance readings of cycles 14 through 25 versus time in minutes. The slope of this line was the rate.
In these experiments, the diluent for Reagent A (Rgt A) was made somewhat differently than that in Example 1. However, the composition was the same, except for component 7 (releasing agent, o-anisic acid) and component 10 (concentration of MPA antibody). Five diluents were prepared, four with one of each of the above agents and one control with no agent. First, a 2×solution was made in the manner described in Example 1 but which had only components 1 through 5 and 9 at twice the amounts listed. Next, for three of the diluents, each of the three anisic acid isomers was weighed to achieve a final molarity of 12.5 mM and predissolved in one quarter the final volume of water and a minimum amount of 6 N NaOH (approximately 6 drops per 0.2 grams anisic acid). For the fourth diluent, the agent, ANS, was weighed to give a 0.25 mM final concentration and added to one quarter the final volume of water. The fifth diluent, the control, had no releasing agent. To make each of these five diluents, the appropriate amounts of the 2×solution, the 1×amount of BSA, component 8, and the 1×amount of the Pluronic 25R solution, component 6, were combined. Four of these then received the appropriate agent. All were mixed well. Where necessary, pH adjustments were made as described previously and each preparation was brought to the final volume with deionized water to achieve 1× concentrations of components. Each of these A diluents was then filtered through a 0.2 micron filter. Final pH measurements on each were all between 5.5 to 5.7. For each of these five A diluents, a corresponding Reagent A was made by adding antibody to MPA for a final concentration of 6.5 μg/mL. Reagent B (Rgt B) was prepared as described in Example 1 except that component 20 was omitted and 0.1% BSA (Miles Diagnostics, Kankakee, Ill.) was substituted for BLG.
In a total of two runs the effects of each of the four agents relative to a control of no agent was examined with respect to (1) background absorbance at 340 nm, (2) the rate of a negative MPA sample, (3) the rate span between 0 and 10 μg/mL MPA, and (4) the closeness of rate matching of a 10 μg/mL MPA spike in NHP and in buffer. Both runs included the control Reagent A. The first run evaluated Reagent A with ANS while the second run evaluated Reagent A preparations containing the structural isomers of anisic acid.
MPA was spiked into NHP and buffer (Buff) to achieve a final concentration of 10 μg/mL MPA. Buffer in this example was 50 mM MES (2-[N-morpholino]ethanesulfonic acid, obtained from Sigma Chemical Company) with 0.1% (weight/volume) sodium azide, pH 7.1. As with PBS, this buffer has no protein and thus no protein binding of MPA can occur.
In both runs, the background absorbance at 340 nm for each Reagent A was measured in duplicate on a 230-μL combination of 3 μL negative NHP, 72 μL of deionized water, and 155 μL Reagent A. The cell path length was 0.6 cm. The average A340 (A=absorbance) values are found in Column C of Table 1. Duplicate rates were determined on the spiked and unspiked NHP and buffer similar to Example 1. […]

For data set [4] the following is noted: cited from earlier work.
A further data set concerns MPA enzyme immunoassay. Briefly: Effect of salicylate as releasing agent on total dose-response curve of MPA enzyme immunoassay. Particulars: salicylate used as releasing agent. An excerpt: Salicylate is known to increase MPA free fraction in normal human plasma when present at concentrations that may be observed in chronic administration of aspirin (Nowak, infra). […] It is also known that 8-anilino-1-naphthalenesulfonic acid (ANS) functions as a releasing agent in immunoassays (Nerli, et al., Arch Int Physiol Biochim Biophys (1994) 102(1):5-8 and Seth, et al., Clin Chem (1975) 21(10):1406-1413. However, ANS has disadvantages because of its background absorbance at 340 nm and its susceptibility to light degradation. The background absorbance is particularly disadvantageous in enzyme immunoassays. However, ANS has been used in certain enzyme assays under conditions where its disadvantages can be tolerated.

Data set [5] concerns MPA bound to plasma proteins in normal human plasma. The data set is described as follows: MPA rates in plasma spikes in the presence of co-administered drugs and salicylate, with or without o-anisic acid, Example 4. The procedure:
In a separate study, the ability of o-anisic acid to eliminate the effect of salicylate on rates of MPA plasma spikes was compared. Two sets of antibody reagents (Reagent A) were prepared to the basic formulation described in Example 2 above. In one reagent, no releasing agent was added; in another reagent, o-anisic acid was added at 12.5 mM. A common Reagent B was prepared as described in Example 2. Rates for four levels of MPA spikes into plasma and a plasma control were measured with each reagent set. […] Salicylate was present at 659 μg/mL. Rates were determined as described in Example 2 above with the exception of the absorbance read window, which was extended to cycle 20 where the assay was ended. Rates were determined using the 10 consecutive absorbance readings of cycles 11 through 20.

Where [6] appears, read: salicylate 659 μg/mL + NI drugs in plasma, no releasing agent in Reagent A.

With `O=S(=O)(O)c1cccc2cccc(Nc3ccccc3)c12` [ANS, 8-anilino-1-naphthalene sulfonic acid, reference compound], in data set [1], the “discoloration of Reagent A when exposed to light” value is recorded as “visibly discolored when exposed to light”. Also, in data set [2], the “C A 340 nm (background absorbance)” value was 0.779 and the “D ΔA = agent - control ΔA 340 nm” value worked out at 0.322. In data set [3], the “I (H-G) Buff Rate Span” value turned out to be 120.2 mA/min, the “J (H-F) Buff-NHP Rate Diff.” value was found to be 2.0 mA/min, the “G Buff with 0 μg/mL MPA Rate” value stood at 156.0 mA/min and the “H Buff with 10 μg/mL MPA Rate” value turned out to be 276.2 mA/min. Also, in data set [3], the “E NHP with 0 μg/mL MPA Rate” value is on record as 158.2 mA/min and the “F NHP with 10 μg/mL MPA Rate” value turned out to be 274.2 mA/min.
For `COc1c(C)c2c(c(O)c1C/C=C(\C)CCC(=O)OCCN1CCOCC1)C(=O)OC2` [MPA-M, morpholinoethyl (E)-6-(1,3-dihydro-4-hydroxy-6-methoxy-7-methyl-3-oxo-5-isobenzofuranyl)-4-methyl-4-hexenoate], in data set [4], the “hydrolysis in vivo to MPA” value is “rapidly hydrolyzed in vivo to MPA”.
In the case of `COc1cccc(C(=O)O)c1` [m-AA], in data set [2], the “C A 340 nm (background absorbance)” value turned out to be 0.494 and the “D ΔA = agent - control ΔA 340 nm” value came to 0.008. In data set [3], the “I (H-G) Buff Rate Span” value worked out at 90.3 mA/min, the “J (H-F) Buff-NHP Rate Diff.” value is −0.6 mA/min, the “G Buff with 0 μg/mL MPA Rate” value came out at 189.4 mA/min and the “H Buff with 10 μg/mL MPA Rate” value was 279.7 mA/min. Also, in data set [3], the “E NHP with 0 μg/mL MPA Rate” value is given as 188.1 mA/min and the “F NHP with 10 μg/mL MPA Rate” value amounted to 280.3 mA/min.
On to `COc1ccc(C(=O)O)cc1` [p-AA], for which, in data set [2], the “C A 340 nm (background absorbance)” value was 0.494 and the “D ΔA = agent - control ΔA 340 nm” value stood at 0.008. Further, in data set [3], the “I (H-G) Buff Rate Span” value worked out at 96.0 mA/min, the “J (H-F) Buff-NHP Rate Diff.” value was −2.1 mA/min, the “G Buff with 0 μg/mL MPA Rate” value is on record as 182.3 mA/min and the “H Buff with 10 μg/mL MPA Rate” value worked out at 278.3 mA/min. Also, in data set [3], the “E NHP with 0 μg/mL MPA Rate” value worked out at 182.7 mA/min and the “F NHP with 10 μg/mL MPA Rate” value turned out to be 280.4 mA/min.
For the molecule `O=C(O)c1ccccc1O` [salicylic acid, 2-hydroxybenzoic acid, reference compound], the “decrease in the total dose-response curve in an MPA enzyme immunoassay” value with MPA enzyme immunoassay was 25-50%. In addition, the “absorbance above the control background at 340 nm” value in data set [2] (25 mM in Reagent A) worked out at 0.311 absorbance units. Moreover, the “effect of salicylate on rates of MPA in normal human plasma” value in data set [5] (absence of releasing agents) is on record as “increased rates of MPA in normal human plasma”. In data set [5] (setting [6]), the “Rate, MPA + NI + Salicylate, 0.5 μg/mL MPA, Antibody Reagent Only” value was found to be 157; the “Rate, MPA + NI + Salicylate, 2.5 μg/mL MPA, Antibody Reagent Only” value stood at 190; the “Rate, MPA + NI + Salicylate, 5 μg/mL MPA, Antibody Reagent Only” value is reported as 210; the “Rate, MPA + NI + Salicylate, 15 μg/mL MPA, Antibody Reagent Only” value was determined as 250.
